Reference: US20250115578A1, “AROMATIC FUSED RING NAV1.8 INHIBITOR, AND USE THEREOF” (CHENGDU KANGHONG PHARMACEUTICAL CO., LTD., priority 2022, published 2025)
Values after ≈ are worked out from the molar mass of the structure shown.

Legend:
[1] = Assay of kinetic solubility; assay type: physicochemical; conditions: aqueous buffer, kinetic from dmso stock, pH 3.5 phosphate buffer, 25° C.
[2] = test system: postoperative pain model in rats; test: Efficacy test in postoperative pain model in rats (mechanical allodynia, PWT); assay type: in vivo, Sprague-Dawley male rats; conditions: single oral 30 mg/kg; for Inhibition of mechanical hyperalgesia induced by postoperative pain model: at 1 h, 2 h and 4 h after administration
Protocol: Sprague-Dawley male rats, purchased from Zhejiang Vital River Laboratory Animal Technology Co., LTD
Compounds of the example 10, 14, 16, 31 of the invention were weighted and prepared into solutions of 3 mg/mL using 5% DMSO (Anhui Senrise Technologies Co., Ltd)+30% Solutol HS15 (Beijing Ouhe Technology Co., LTD.)+65% water for injection, and administered at a volume of 10 mL/kg by gavage. The dosage was 30 mg/kg.
Animals were anesthetized with Zoletil 50+ Xylazine Hydrochloride (20 mg/kg+8 mg/kg, intraperitoneally injected). The surgical area on the plantar skin of the left hind paw was disinfected three times with iodophor and 70% ethanol, and the surgery was started after the skin was dry.
A longitudinal incision about 1 cm was made towards the toes starting from 0.5 cm away from the heel of the left hind paw. After the skin was incised, the flexor digitorum brevis was raised and longitudinal blunt injury was caused. After hemostasis by pressing, the wound was sutured. After surgery, animals were placed on an electric warm pad and 5 mL of physiological saline was injected subcutaneously to prevent dehydration. 24 h after modeling, all animals (including the normal control group) were tested for base mechanical allodynia (PWT). The modeling animals without mechanical hypersensitivity (PWT greater than 5 g) were excluded and […] were selected and randomly divided into 5 groups, with 9 animals in each group except 5 in the normal group (negative control group).
The animals were weighed and administered orally at a volume of 10 mL/kg. Except normal control animals, other animals were given a single dose of compounds, and mechanical allodynia was performed by test fibers on all groups of animals at 1 h, 2 h and 4 h after dosing. The rats were placed individually in a plexiglass box with a grid at the bottom to ensure that the paws of the rats could be tested. The rats would acclimate for 15 minutes before the test. After the acclimation was completed, the test fibers were used to test on the plantar center of the rat's left hind paw. Pressed the test fiber vertically against the skin and applied force to bend the fiber for 6 to 8 seconds, with 5 second intervals between each test. The rapid withdrawal of the animal's paws during the test was recorded as a pain response. The animal's paw withdrawal when the fibers left the animal's skin was also recorded as a pain response. If the animal moves or walks around, it's not recorded as a pain response, and the test should be repeated.
Mechanical hyperalgesia was expressed as the paw withdrawal threshold (PWT) in the rat behavioral test, which was calculated according to the following formula:
50% response threshold (g)=(10^(Xf+kδ)/10,000 • Xf=final test fiber value used in the test • k=table value (Chaplan et al. 1994, page 62) • δ=mean deviation
Data were collected with excel software and analyzed with Prism 7.0 (Graph pad software, Inc.) software by two-way ANOVA followed by Dunnett multiple comparison test.

Row | SMILES | solubility kinetic at 2 h [1] | Inhibition of mechanical hyperalgesia induced by postoperative pain model [2] | Efficacy compared with example compound 31 ([2]; at 1 h and 4 h after administration) | Efficacy compared with example compound 31 ([2]; after 1 h of administration)
1 | NC(=O)c1cc(NC(=O)c2nc3ccccc3nc2N2CCCC(F)(F)CC2)ccc1F [Example 02, N-(3-carbamoyl-4-fluorophenyl)-3-(4,4-difluoroazepan-1-yl)quinoxaline-2-carboxamide] | 2.8 µM (≈ 1.24 µg/mL) | – | – | –
2 | NC(=O)c1cc(NC(=O)c2nc3ccccc3nc2N2CCCC(F)(F)CC2)ccn1 [Example 05, N-(2-carbamoylpyridin-4-yl)-3-(4,4-difluoroazepan-1-yl)quinoxaline-2-carboxamide] | 0.39 µM (≈ 0.166 µg/mL) | – | – | –
3 | NC(=O)c1cc(NC(=O)c2cc3ccccc3nc2N2CCCC(F)(F)CC2)ccn1 [Example 08, N-(2-carbamoylpyridin-4-yl)-2-(4,4-difluoroazepan-1-yl)quinoline-3-carboxamide] | 175 µM (≈ 74.5 µg/mL) | – | – | –
4 | NC(=O)c1cc(NC(=O)c2cc3cc(F)c(F)cc3nc2N2CCCC(F)(F)CC2)ccn1 [Example 10, N-(2-carbamoylpyridin-4-yl)-2-(4,4-difluoroazepan-1-yl)-6,7-difluoroquinoline-3-carboxamide] | – | inhibited mechanical hyperalgesia | – | –
5 | NS(=O)(=O)c1cc(NC(=O)c2cc3ccccc3nc2N2CCCC(F)(F)CC2)ccn1 [Example 14, 2-(4,4-difluoroazepan-1-yl)-N-(2-sulfamoylpyridine-4-yl) quinoline-3-carboxamide] | 271 µM (≈ 125 µg/mL) | inhibited mechanical hyperalgesia | significantly stronger than that of example compound 31 | –
6 | NS(=O)(=O)c1cccc(NC(=O)c2cc3cc(F)c(F)cc3nc2N2CCCC(F)(F)CC2)c1 [Example 16, 2-(4,4-difluoroazepan-1-yl)-6,7-difluoro-N-(3-sulfamoylphenyl) quinoline-3-carboxamide] | – | inhibited mechanical hyperalgesia | – | significantly more effective than example compound 31
